Assay results: ChEMBL document CHEMBL3879902, “Compounds and methods for kinase modulation, and indications thereof” (2012)

Key:
[1] = Aqueous solubility of the compound in simulated intestinal fluid at pH 4.5; type: ADME; details: simulated gi fluid
[2] = Aqueous solubility of the compound in hepes buffer at pH 7.4; type: physicochemical
[3] = Aqueous solubility of the compound in simulated gastric fluid at pH 1.5; type: ADME; details: simulated gi fluid
[4] = Aqueous solubility of the compound in simulated intestinal fluid at pH 6.8; type: ADME; details: simulated gi fluid

Compound | solubility [1] | solubility [2] | solubility [3] | solubility [4]
COc1ncc(-c2cnc3[nH]cc(C(=O)c4c(F)ccc(NS(=O)(=O)c5ccccc5F)c4F)c3c2)cn1 | Insoluble | Insoluble | Insoluble | Insoluble
O=C(c1c(F)ccc(NS(=O)(=O)c2cc(F)ccc2F)c1F)c1c[nH]c2nccc(Cl)c12 | Soluble | Soluble | Insoluble | Soluble
O=C(c1c(F)ccc(NS(=O)(=O)c2ccccc2F)c1F)c1c[nH]c2nccc(Cl)c12 | Soluble | Soluble | Soluble | Soluble
COc1cnc2[nH]cc(C(=O)c3c(F)ccc(NS(=O)(=O)c4ccccc4F)c3F)c2c1 | Insoluble | Soluble | Insoluble | Insoluble
Cc1cnc2[nH]cc(C(=O)c3c(F)ccc(NS(=O)(=O)c4c(F)cccc4F)c3F)c2c1 | Insoluble | Soluble | Soluble | Soluble
COc1ncc(-c2cnc3[nH]cc(C(=O)c4c(F)ccc(NS(=O)(=O)c5cc(F)ccc5F)c4F)c3c2)cn1 | Insoluble | Insoluble | Insoluble | Insoluble
CCCS(=O)(=O)Nc1ccc(F)c(C(=O)c2c[nH]c3ncc(-c4ccc(S(=O)(=O)NC5CC5)cc4)cc23)c1F | Insoluble | Insoluble | Insoluble | Insoluble
N#Cc1cnc2[nH]cc(C(=O)c3c(F)ccc(NS(=O)(=O)c4ccccc4)c3F)c2c1 | Insoluble | Soluble | Insoluble | Soluble
O=C(c1c(F)ccc(NS(=O)(=O)c2cc(F)ccc2F)c1F)c1c[nH]c2ncc(Cl)cc12 | Insoluble | Soluble | Insoluble | Soluble
N#Cc1cnc2[nH]cc(C(=O)c3cccc(NS(=O)(=O)c4ccccc4F)c3F)c2c1 | Soluble | Soluble | Soluble | Soluble
CCCS(=O)(=O)Nc1ccc(F)c(C(=O)c2c[nH]c3ncc(-c4cncnc4)cc23)c1F | Soluble | Soluble | Soluble | Soluble
CCCS(=O)(=O)Nc1ccc(F)c(C(=O)c2c[nH]c3ncc(-c4ccc(C(=O)NCC)nc4)cc23)c1F | Insoluble | Insoluble | Insoluble | Insoluble
N#Cc1cnc2[nH]cc(C(=O)c3cccc(NS(=O)(=O)c4ccccc4)c3F)c2c1 | Insoluble | Soluble | Insoluble | Soluble
N#Cc1ccnc2[nH]cc(C(=O)c3c(F)ccc(NS(=O)(=O)c4ccccc4F)c3F)c12 | Soluble | Soluble | Soluble | Soluble
CCCS(=O)(=O)Nc1ccc(F)c(C(=O)c2c[nH]c3ncc(-c4ccc(S(=O)(=O)N(C)C)cc4)cc23)c1F | Insoluble | Insoluble | Insoluble | Insoluble
Cc1cnc2[nH]cc(C(=O)c3c(F)ccc(NS(=O)(=O)c4ccccc4F)c3F)c2c1 | Soluble | Soluble | Insoluble | Soluble
COc1ncc(-c2cnc3[nH]cc(C(=O)c4c(F)ccc(NS(=O)(=O)c5c(F)cccc5F)c4F)c3c2)cn1 | Insoluble | Soluble | Insoluble | Insoluble
N#Cc1cnc2[nH]cc(C(=O)c3c(F)ccc(NS(=O)(=O)c4ccccc4F)c3F)c2c1 | Soluble | Soluble | Soluble | Soluble
COc1ncc(-c2cnc3[nH]cc(C(=O)c4c(F)ccc(NS(=O)(=O)c5cccc(F)c5)c4F)c3c2)cn1 | Insoluble | Soluble | Insoluble | Insoluble
Cc1cnc2[nH]cc(C(=O)c3c(F)ccc(NS(=O)(=O)c4cccc(F)c4)c3F)c2c1 | Insoluble | Soluble | Soluble | Soluble
COc1ccnc2[nH]cc(C(=O)c3c(F)ccc(NS(=O)(=O)c4cc(F)ccc4F)c3F)c12 | Soluble | Soluble | Soluble | Soluble
COc1ccnc2[nH]cc(C(=O)c3c(F)ccc(NS(=O)(=O)c4ccccc4F)c3F)c12 | Soluble | Soluble | Soluble | Soluble

Compound | solubility [1] | solubility [2] | solubility [3] | solubility [4]
CCCS(=O)(=O)Nc1ccc(F)c(C(=O)c2c[nH]c3ncc(-c4cnn(CCN5CCOCC5)c4)cc23)c1F | Soluble | Insoluble | Soluble | Insoluble
N#Cc1cnc2[nH]cc(C(=O)c3cccc(NS(=O)(=O)c4cc(F)ccc4F)c3F)c2c1 | Insoluble | Soluble | Insoluble | Soluble
CCCS(=O)(=O)Nc1ccc(F)c(C(=O)c2c[nH]c3ncc(-c4ccc(OCCCN(C)C)nc4)cc23)c1F | Soluble | Insoluble | Soluble | Insoluble
COc1ccnc2[nH]cc(C(=O)c3c(F)ccc(NS(=O)(=O)c4cccc(F)c4)c3F)c12 | Soluble | Soluble | Soluble | Soluble
N#Cc1cnc2[nH]cc(C(=O)c3cccc(NS(=O)(=O)c4cccc(F)c4)c3F)c2c1 | Insoluble | Soluble | Insoluble | Soluble
COc1cnc2[nH]cc(C(=O)c3c(F)ccc(NS(=O)(=O)c4cc(F)ccc4F)c3F)c2c1 | Insoluble | Soluble | Insoluble | Soluble
CCCS(=O)(=O)Nc1ccc(F)c(C(=O)c2c[nH]c3ncc(-c4ccc(F)nc4)cc23)c1F | Insoluble | Insoluble | Insoluble | Insoluble
CCCS(=O)(=O)Nc1ccc(F)c(C(=O)c2c[nH]c3ncc(-c4cncc(S(C)(=O)=O)c4)cc23)c1F | Insoluble | Soluble | Soluble | Insoluble
O=C(c1c(F)ccc(NS(=O)(=O)c2cccnc2)c1F)c1c[nH]c2ncc(Cl)cc12 | Soluble | Soluble | Soluble | Soluble
CCCS(=O)(=O)Nc1ccc(F)c(C(=O)c2c[nH]c3ncc(-c4cn[nH]c4)cc23)c1F | Insoluble | Insoluble | Insoluble | Insoluble
CCCS(=O)(=O)Nc1ccc(F)c(C(=O)c2c[nH]c3ncc(-c4ccc(C(=O)NC5CC5)nc4)cc23)c1F | Insoluble | Insoluble | Insoluble | Insoluble
O=C(c1c(F)ccc(NS(=O)(=O)c2c(F)cccc2F)c1F)c1c[nH]c2ncc(Cl)cc12 | Soluble | Soluble | Soluble | Soluble
CCCS(=O)(=O)Nc1ccc(F)c(C(=O)c2c[nH]c3ncc(-c4ccc(C(=O)NC)nc4)cc23)c1F | Insoluble | Insoluble | Insoluble | Insoluble
Cc1cnc2[nH]cc(C(=O)c3c(F)ccc(NS(=O)(=O)c4cccnc4)c3F)c2c1 | Soluble | Soluble | Soluble | Soluble
CCCS(=O)(=O)Nc1ccc(F)c(C(=O)c2c[nH]c3ncc(-c4ccc(OC)nc4OC)cc23)c1F | Insoluble | Insoluble | Insoluble | Insoluble
CCCS(=O)(=O)Nc1ccc(F)c(C(=O)c2c[nH]c3ncc(-c4ccc(NS(C)(=O)=O)cc4)cc23)c1F | Insoluble | Insoluble | Insoluble | Insoluble
N#Cc1cnc2[nH]cc(C(=O)c3cccc(NS(=O)(=O)c4cccnc4)c3F)c2c1 | Soluble | Soluble | Soluble | Soluble
O=C(c1c(F)ccc(NS(=O)(=O)c2cccc(F)c2)c1F)c1c[nH]c2nccc(Cl)c12 | Soluble | Soluble | Insoluble | Soluble
CCCS(=O)(=O)Nc1ccc(F)c(C(=O)c2c[nH]c3ncc(-c4ccc(S(C)(=O)=O)cc4)cc23)c1F | Insoluble | Insoluble | Insoluble | Insoluble
CCCS(=O)(=O)Nc1ccc(F)c(C(=O)c2c[nH]c3ncc(-c4ccc(S(=O)(=O)N5CCOCC5)cc4)cc23)c1F | Insoluble | Insoluble | Insoluble | Insoluble
CCCS(=O)(=O)Nc1ccc(F)c(C(=O)c2c[nH]c3ncc(-c4cnc(SC)nc4)cc23)c1F | Insoluble | Insoluble | Insoluble | Insoluble
Cc1cnc2[nH]cc(C(=O)c3c(F)ccc(NS(=O)(=O)c4cc(F)ccc4F)c3F)c2c1 | Insoluble | Soluble | Soluble | Soluble
